For orientation: DC50 means the concentration at which degradation of the target reaches its halfway point. High values mean a less potent degrader, low ones a more potent degrader. What is called IC50 is the concentration at which inhibition is half-maximal.

Six molecules from ChEMBL document CHEMBL4706540, “Targeting estrogen receptor α for degradation with PROTACs: A promising approach to overcome endocrine resistance” (Eur J Med Chem, 2020) can be followed below.

For one test, the target named is T1, Estrogen receptor (Homo sapiens, UniProt P03372).
T1 sequence (P03372 whole entry): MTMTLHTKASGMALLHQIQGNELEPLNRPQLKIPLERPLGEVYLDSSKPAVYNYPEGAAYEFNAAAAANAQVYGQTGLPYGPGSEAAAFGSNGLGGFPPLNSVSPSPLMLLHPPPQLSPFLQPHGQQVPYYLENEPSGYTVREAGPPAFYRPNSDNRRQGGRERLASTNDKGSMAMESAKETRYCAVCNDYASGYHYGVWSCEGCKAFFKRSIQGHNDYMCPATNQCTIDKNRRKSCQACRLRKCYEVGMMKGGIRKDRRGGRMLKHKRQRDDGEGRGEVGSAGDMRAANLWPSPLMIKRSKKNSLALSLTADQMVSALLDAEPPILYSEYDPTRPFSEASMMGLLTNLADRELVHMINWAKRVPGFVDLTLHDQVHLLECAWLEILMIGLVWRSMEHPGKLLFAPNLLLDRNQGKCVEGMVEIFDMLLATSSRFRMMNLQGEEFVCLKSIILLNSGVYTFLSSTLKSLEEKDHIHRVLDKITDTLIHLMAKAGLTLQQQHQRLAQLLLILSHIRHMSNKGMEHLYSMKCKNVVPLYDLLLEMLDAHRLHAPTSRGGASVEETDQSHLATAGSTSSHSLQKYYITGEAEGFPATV
Put plainly: Induction of XIAP-mediated estrogen receptor alpha degradation in human MCF7 cells incubated for 4 hrs by western blot analysis. Format: cell-based. (In general: In western blotting, separated proteins are transferred to a membrane and probed.)

Test [1] relates to MCF7. Put plainly: Antiproliferative activity against human MCF7 cells incubated for 72 hrs by crystal violet staining based assay. The note with it: MCF7, 72 h. Format: functional, cell-based.
Test [2] relates to T47D. Put plainly: Antiproliferative activity against human T47D cells incubated for 72 hrs by crystal violet staining based assay. Format: functional, cell-based.
Test [3] concerns MCF7. In words: Growth inhibition of human MCF7 cells harboring wild type estrogen receptor incubated for 5 days by PrestoBlue cell viability assay. Format: functional, cell-based. The note with it: MCF7, 120 h.
The test system of test [4] is MCF7. In words: Growth inhibition of human MCF7 cells harboring ER Y537S mutant incubated for 5 days by PrestoBlue cell viability assay. Format: functional, cell-based. To be noted: MCF7, 120 h.
The subject of test [5] is MCF7. In words: Growth inhibition of human MCF7 cells harboring ER D538G mutant incubated for 5 days by PrestoBlue cell viability assay. Format: functional, cell-based. The note with it: MCF7, 120 h.
Test [6] deals with T2, von Hippel-Lindau disease tumor suppressor/Estrogen receptor (Homo sapiens, UniProt P03372+P40337). In words: Induction of VHL-mediated ERalpha degradation in human MCF7 cells by western blot analysis. Format: cell-based.
Target sequence in this assay (P40337 whole entry, one chain of several): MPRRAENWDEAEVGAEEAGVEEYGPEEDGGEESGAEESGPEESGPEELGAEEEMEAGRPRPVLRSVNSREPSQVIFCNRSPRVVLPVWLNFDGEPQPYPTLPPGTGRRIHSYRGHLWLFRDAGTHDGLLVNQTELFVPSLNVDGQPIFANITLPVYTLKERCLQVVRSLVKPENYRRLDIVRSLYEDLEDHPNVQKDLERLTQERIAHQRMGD
The target in test [7] is T2, von Hippel-Lindau disease tumor suppressor/Estrogen receptor. Put plainly: Induction of VHL-mediated ERalpha degradation in human MCF7 cells assessed as maximum degradation by western blot analysis relative to control. Format: cell-based.
Target sequence in this assay (P40337 whole entry, looked up, one chain of several): as the sequence (P40337 whole entry, one chain of several) above
Test [8] concerns MCF7. In words: Antiproliferative activity against human MCF7 cells incubated for 6 days with replacement of medium every 2 to 3 days by MTT assay. Format: functional, cell-based.
Test [9] relates to MCF7. Put plainly: Antiproliferative activity against human MCF7 cells incubated for 6 days with replacement of medium every 2 to 3 days by MTT assay relative to control. Format: functional. To be noted: time 6 day. (Formazan colour is commonly taken as a measure of viable cells.)
In test [10] the test system is T47D. In words: Antiproliferative activity against human T47D cells incubated for 6 days with replacement of medium every 2 to 3 days by MTT assay. Format: functional, cell-based.
Test [11] has as its system T47D. Put plainly: Antiproliferative activity against human T47D cells incubated for 6 days with replacement of medium every 2 to 3 days by MTT assay relative to control. Format: functional. To be noted: time 6 day.
Test [12] has as its target T2, von Hippel-Lindau disease tumor suppressor/Estrogen receptor. Put plainly: Induction of VHL-mediated ERalpha degradation in human T47D cells by western blot analysis. Format: cell-based.
Target sequence in this assay (P40337 whole entry, one chain of several): as above
For test [13] the target is unchanged. In words: Induction of VHL-mediated ERalpha degradation in human T47D cells assessed as maximum degradation by western blot analysis relative to control. Format: cell-based.
Target sequence in this assay (P40337 whole entry, looked up, one chain of several): as the sequence (P40337 whole entry, one chain of several) above
The subject of test [14] is MCF7. In words: Induction of IAP-mediated estrogen receptor alpha degradation in human MCF7 cells at <1 uM by western blot analysis relative to control. Format: cell-based. To be noted: dose microM <1.

As for `CCC(=C(c1ccc(O)cc1)c1ccc(OCCN(C)C(=O)COCCOCCOCCOc2cccc(C(=O)c3csc([C@@H]4CCCN4C(=O)[C@@H](NC(=O)[C@H](C)NC)C4CCCCC4)n3)c2)cc1)c1ccccc1`, the DC50 at Estrogen receptor is < 3 nM. Besides, the results for the IC50 in the test with MCF7 [1] and with T47D [2] were 15.6 nM and 9.6 nM, respectively.
On to `CCN(CCCCCCCC(=O)N[C@H](C(=O)N1C[C@H](O)C[C@H]1C(=O)N[C@@H](C)c1ccc(-c2scnc2C)cc1)C(C)(C)C)CCOc1ccc(C(=O)c2c(-c3ccc(O)cc3)sc3cc(O)ccc23)cc1`, for which the results for the IC50 with MCF7 [3], in the test with MCF7 [4] and in the test on MCF7 [5] were 0.8 nM, 10.5 nM and 6.1 nM, respectively.
Molecule `Cc1ncsc1-c1ccc([C@H](C)NC(=O)[C@@H]2C[C@@H](O)CN2C(=O)[C@@H](NC(=O)CCCCOc2ccc(CNNC(=O)c3ccc(C(=O)c4c(-c5ccc(O)cc5)sc5cc(O)ccc45)cc3)cc2)C(C)(C)C)cc1` displayed a 50% degradation concentration (DC50) in test [6] of 1.13 nM. For the same molecule, the Imax in test [7] was 98%; with MCF7 [9] it was 69%; in the test on T47D [11] it was 78%. The IC50 with MCF7 [8] was 13.2 nM; with T47D [10] it was 17 nM.
For `CCC(=C(c1ccc(O)cc1)c1ccc(OCCN(C)C(=O)COCCOCCOCCOc2cccc(O[C@H]3C[C@@H](C(=O)N[C@@H]4CCCc5ccccc54)N(C(=O)[C@@H](NC(=O)[C@H](C)NC)C4CCCCC4)C3)c2)cc1)c1ccccc1`, the DC50 on Estrogen receptor was < 3 nM.
In the case of `Cc1ncsc1-c1ccc([C@H](C)NC(=O)[C@@H]2C[C@@H](O)CN2C(=O)[C@@H](NC(=O)CCCCOc2ccc(/C=N/NC(=O)c3ccc(C(=O)c4c(-c5ccc(O)cc5)sc5cc(O)ccc45)cc3)cc2)C(C)(C)C)cc1`, the half-maximal degradation concentration (DC50) was determined as 7.7 nM in [6] and 10.3 nM in [12]. Moreover, the Imax in [7] was 95%; in test [13], > 95%; in the test with MCF7 [9], 60%; with T47D [11], 73%. Also, the IC50 with MCF7 [8] is 69.1 nM; in the test with T47D [10] it was 65.2 nM.
Take `CN[C@@H](C)C(=O)N[C@H](C(=O)N1Cc2cc(OCCOCCOCCOCCOc3ccc(Oc4c(-c5ccc(O)cc5)sc5cc(O)ccc45)cc3)ccc2C[C@H]1C(=O)N[C@@H]1CCCc2ccccc21)C(C)(C)C`: in the test with MCF7 [14], the Activity is > 50%.
